Several values for one entry are separate records, joined by “and”; a condition that tells them apart may be missing. Identical values can stand only once.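 All cell lines were grown in 96-well plates and treated with compound for 48 hours. GI50 marks 50% less growth. TGI denotes the concentration required for complete inhibition of growth.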
Legend:
Experiment in all cases: growth of human tumour cells (NCI), 48 h
CCRF-CEM leukemia = tested on: CCRF-CEM leukemia
LOX IMVI melanoma = tested on: LOX IMVI melanoma
OVCAR-5 ovarian = tested on: OVCAR-5 ovarian
RPMI-8226 leukemia = tested on: RPMI-8226 leukemia
SN12C renal = tested on: SN12C renal
BT-549 breast = tested on: BT-549 breast
SW-620 colon = tested on: SW-620 colon
OVCAR-4 ovarian = tested on: OVCAR-4 ovarian
UACC-257 melanoma = tested on: UACC-257 melanoma
MCF7 breast = tested on: MCF7 breast

Row | Compound | GI50 (CCRF-CEM leukemia) | TGI (CCRF-CEM leukemia) | TGI (LOX IMVI melanoma) | TGI (OVCAR-5 ovarian) | GI50 (RPMI-8226 leukemia) | TGI (RPMI-8226 leukemia) | GI50 (SN12C renal) [µM] | TGI (SN12C renal) | GI50 (BT-549 breast) | TGI (BT-549 breast) | GI50 (SW-620 colon) [µM] | TGI (SW-620 colon) | GI50 (LOX IMVI melanoma) [µM] | GI50 (OVCAR-5 ovarian) [µM] | GI50 (OVCAR-4 ovarian) [µM] | TGI (OVCAR-4 ovarian) | GI50 (UACC-257 melanoma) [µM] | TGI (UACC-257 melanoma) | GI50 (MCF7 breast) [µM] | TGI (MCF7 breast) [µM]
1 | Cc1cc(N)c2ccccc2[n+]1CCCCCCCCCC[n+]1c(C)cc(N)c2ccccc21 | 0.635 µM and 1.3 µM | 3.53 µM and 16.2 µM and 6.15 µM | 2.29 µM | 25.5 µM and 7.98 µM | 0.0435 µM and 0.324 µM | 0.859 µM and 2.61 µM and 2.71 µM | 0.159 | > 14 µM and 7.39 µM and 16.7 µM | 0.304 µM and 1.5 µM | 1.57 µM and 3.29 µM and 5.32 µM | 0.508 | > 50 µM and 33.9 µM and > 100 µM | – | – | – | – | – | – | – | –
2 | COc1ncnc2c(-c3ccco3)cn(COCc3ccccc3)c12 | > 50 µM | > 50 µM | > 50 µM | > 50 µM | 4.87 µM | > 50 µM | > 50 | > 50 µM | – | – | > 50 | > 50 µM | > 50 | > 50 | > 50 | > 50 µM | > 50 | > 50 µM | – | –
3 | COC(=O)C(=O)C(C(=O)C(=O)Nc1ccccc1C(N)=O)c1nc2ccc(C(=O)c3ccccc3)cc2[nH]c1=O (stereo not drawn) | – | > 100 µM | – | > 100 µM | – | > 100 µM | – | > 100 µM | – | – | – | > 100 µM | – | – | – | > 100 µM | – | > 100 µM | – | –
4 | Cc1ns/c(=N\C(=S)N(C)C)n1C | – | > 100 µM | – | > 100 µM | – | > 100 µM | – | > 100 µM | – | – | – | > 100 µM | – | – | – | > 100 µM | – | > 100 µM | – | –
5 | CCCCCCN1C(=O)CN=C1Nc1ccc2cc3ccc(NC4=NCC(=O)N4CCCCCC)cc3nc2c1 | 2.49 µM | 6.79 µM | – | 4.12 µM | 2.07 µM | 5.52 µM | 1.75 | 3.45 µM | 3.46 µM | 17.6 µM | 1.84 | 3.7 µM | – | 1.81 | 1.66 | 4.01 µM | 3.34 | 9.74 µM | 1.66 | 3.95
6 | C/C(=N/Nc1ccc([N+](=O)[O-])cc1[N+](=O)[O-])C(CC(C(=O)Nc1ccccc1C)/C(C)=N\Nc1ccc([N+](=O)[O-])cc1[N+](=O)[O-])C(=O)Nc1ccccc1C (stereo not drawn) | – | > 100 µM | 36 µM | 31 µM | – | > 69.3 µM | – | 12.7 µM | – | – | – | 42.3 µM | – | – | – | 15.9 µM | – | 43.9 µM | – | –
7 | COc1ccc(S(=O)(=O)NCCNc2nccc(-c3c(-c4ccccc4)nc4sccn34)n2)cc1 | – | – | > 100 µM | > 100 µM | – | – | 1.93 | > 100 µM | 3.56 µM | > 100 µM | 5.03 | > 100 µM | 3.94 | > 100 | 3.62 | > 100 µM | 6.47 | > 100 µM | 0.873 | > 100
8 | O=C1/C(=C/c2ccccc2)CN(C(=O)Oc2ccc([N+](=O)[O-])cc2)C/C1=C\c1ccccc1 | 1.72 µM | 6.5 µM and 8.22 µM | 1.26 µM and 3.36 µM | – | 0.0844 µM | 0.428 µM and 0.424 µM | 3.45 | 7.62 µM | – | – | 1.27 | 2.47 µM | 1.57 | – | 1.77 | 7.87 µM and 4.15 µM | 6.29 | 8.79 µM | – | –
9 | O=C1CC2Sc3ccccc3N=C2N1c1ccc(Cl)cc1Cl (stereo not drawn) | – | 52.9 µM | > 100 µM | > 100 µM | – | > 100 µM | – | > 100 µM | – | – | – | > 100 µM | – | – | – | > 100 µM | – | > 100 µM | – | –
10 | O=C(OCc1nc2ccc(Br)cc2c(=O)n1-c1ccccc1)c1ccccc1O | – | > 100 µM | > 100 µM | > 100 µM | – | > 100 µM | – | > 100 µM | – | – | – | > 100 µM | – | – | – | > 100 µM | – | > 100 µM | – | –
11 | O=C1c2cccc3cccc(c23)C(=O)N1CCCN1CCN(CCCN2C(=O)c3cccc4cccc(c34)C2=O)CC1 | – | > 100 µM | > 100 µM | > 100 µM | – | > 100 µM | – | > 100 µM | – | – | – | > 100 µM | – | – | – | > 100 µM | – | > 100 µM | – | –
12 | COc1ccccc1NC(=O)C(=O)C1C(=O)Nc2ccccc2S1=O (stereo not drawn) | – | > 100 µM | > 100 µM | > 100 µM | – | – | – | > 100 µM | – | – | – | > 100 µM | – | – | – | > 100 µM | – | > 100 µM | – | –
13 | Cn1cc(-c2nn3cc(-c4cccs4)nc3s2)c2cc(F)ccc21 | 2.54 µM | > 100 µM | – | 84.4 µM | 3.01 µM | 26.5 µM | 4.71 | > 100 µM | 5.54 µM | 77.4 µM | 0.478 | > 100 µM | – | 8.24 | 5.77 | > 100 µM | 7.9 | > 100 µM | 0.836 | 30
14 | N#CC(=C=[N-])[n+]1ccc(Cl)cc1 | – | 56 µM | 26.2 µM | 32.7 µM | – | 60.7 µM | – | 28.3 µM | – | – | – | 23.4 µM | – | – | – | 39.8 µM | – | 29.5 µM | – | –
15 | COc1cc(CC(=O)c2ccc3c(c2)OCO3)cc(OC)c1OC | – | > 100 µM | – | > 100 µM | – | > 100 µM | – | > 100 µM | – | – | – | 46.3 µM | – | – | – | > 100 µM | – | > 100 µM | – | –
16 | Cn1c(COC(=O)NCCN2CCOCC2)nc2c(N3CCOCC3)nc(-c3ccccc3)nc21 | 0.306 µM | 2.17 µM | 1.1 µM | 3.66 µM | – | – | 1.03 | 2.6 µM | 1.08 µM | 2.71 µM | 0.444 | 1.78 µM | 0.256 | 1.6 | 1.11 | 2.53 µM | 1.44 | 3.16 µM | 0.47 | 2.18
17 | O=c1c2cc(F)ccc2sc2c(NCCCN3CCCC3)nc3ccccc3c12 | 2.02 µM | 4.51 µM | 3.28 µM | 3.74 µM | – | – | 1.97 | 4.6 µM | 2.99 µM | 12 µM | – | – | 1.73 | 1.85 | 2.01 | 4.61 µM | 1.97 | 3.98 µM | 1.22 | 2.89
18 | COC(=O)C1CCC(=NC2c3ccccc3-c3ccccc32)N1 (stereo not drawn) | – | > 100 µM | – | > 100 µM | – | > 100 µM | – | > 100 µM | – | – | – | > 100 µM | – | – | – | > 100 µM | – | > 100 µM | – | –
19 | Clc1ccccc1C1=NN(c2ccccc2)C2c3cc(Br)ccc3OCC12 (stereo not drawn) | – | > 100 µM | – | > 100 µM | – | > 100 µM | – | – | – | – | – | > 100 µM | – | – | – | – | – | > 100 µM | – | –
20 | CCCCCCCCCCCCCCCC(=O)N[C@H]1CCc2cc(OC)c(OC)c(OC)c2-c2ccc(SC)c(=O)cc21 | 2.68 µM | 11.4 µM and 15.3 µM | 11.9 µM | 41.1 µM and 36.8 µM | – | 22.7 µM | 2.84 | 9.08 µM and 10.3 µM | – | – | 2.1 | 15.6 µM and 10.8 µM | – | 19.7 | 8.65 | 80 µM and > 100 µM | 0.699 | 13.1 µM and 26.4 µM | – | –
21 | CCOC(=N)CC(=O)NC(C)c1ccccc1 (stereo not drawn) | – | > 100 µM | > 100 µM | > 100 µM | – | – | – | > 100 µM | – | – | – | > 100 µM | – | – | – | > 100 µM | – | > 100 µM | – | –
22 | O=C1c2ccccc2C(=O)c2c1ccc1c3ccccc3n(Cc3ccccc3)c21 | – | > 100 µM | > 100 µM | > 100 µM | – | > 100 µM | – | > 100 µM | – | – | – | > 100 µM | – | – | – | > 100 µM | – | – | – | –
23 | CCCCCCCCCCCCCCCCCC1=NC(C)(C)CN1CCO | 1.92 µM | 5.05 µM | 2.87 µM | 3.6 µM | – | – | 1.61 | 3.61 µM | 19.8 µM | 48 µM | 1.75 | 3.21 µM | 1.54 | 1.78 | 3.12 | 9.8 µM | 1.8 | 3.57 µM | 1.78 | 3.32
24 | CN1c2ccccc2C(=O)Nc2cnc(Cl)nc21 | – | > 100 µM | > 100 µM | > 100 µM | – | > 100 µM | – | > 100 µM | – | – | – | > 100 µM | – | – | – | > 100 µM | – | > 100 µM | – | > 100
25 | CCC1NCC(=O)c2c1[nH]c1ccccc21 (stereo not drawn) | – | > 100 µM | > 100 µM | > 100 µM | – | > 100 µM | – | > 100 µM | – | – | – | > 100 µM | – | – | – | > 100 µM | – | > 100 µM | – | –
26 | Nc1ncnc2c1ncn2Cc1ccc(C23CC4CC(CC(C4)C2)C3)c(O)c1 | 3.97 µM | > 100 µM | > 100 µM | > 100 µM | – | – | 36.9 | > 100 µM | 23.5 µM | > 100 µM | 48.7 | > 100 µM | 24.6 | > 100 | 2.71 | 8.66 µM | 3.39 | 61.2 µM | 17.4 | > 100
27 | C/C(=N\NC(=S)N1CCC(C2CCN(C(=S)N/N=C(\C)c3ccccn3)CC2)CC1)c1ccccn1 | – | > 100 µM | > 100 µM | > 100 µM | – | > 100 µM | – | > 100 µM | – | – | – | > 100 µM | – | – | – | > 100 µM | – | > 100 µM | – | –
28 | Cc1cccc(N2C(=O)/C(=C/c3ccc(N(CCC#N)CCC#N)cc3C)N=C2c2cc([N+](=O)[O-])ccc2Cl)c1 | – | > 100 µM | – | > 100 µM | – | > 100 µM | – | > 100 µM | – | – | – | > 100 µM | – | – | – | > 100 µM | – | > 100 µM | – | –
29 | O=C1/C(=C/c2ccccc2)CN(C(=O)OCC(Cl)(Cl)Cl)C/C1=C\c1ccccc1 | – | 13.5 µM | 2.06 µM | 16.8 µM | – | 0.649 µM | – | 3.56 µM | – | – | – | 2.3 µM | – | – | – | – | – | 4.48 µM | – | –
30 | CCOC(=O)NNC(=O)NC12CC3CC(CC(C3)C1)C2 | – | > 100 µM | > 100 µM | > 100 µM | – | – | – | > 100 µM | – | – | – | > 100 µM | – | – | – | > 100 µM | – | > 100 µM | – | –

— PubChem BioAssay (NCI)
